{
  "source": "PubChem BioAssay AID2060333",
  "about": "(Molecular Pharmacology Branch, DTP, NCI, 2025)",
  "system": "845751-090-R-J2-PDC tumor spheroid viability",
  "experiment": "Anticancer human tumor 845751-090-R-J2-PDC patient-derived head and neck squamous carcinoma cell line growth inhibition [IpAb]",
  "details": "spheroids with HUVEC and MSC; for viability, T/C: stronger effect = lower value",
  "source_text": "Combinatorial screen of targeted agents with ipatasertib and abemaciclib in multi-cell type tumor spheroids\nA high-throughput screen of multi-cell type tumor spheroids was designed to identify active combinations of targeted small molecules and ipatasertib or abemaciclib. Complex spheroids include a stromal component modeled by human endothelial cells (HUVEC) and fibroblasts modeled by human mesenchymal stem cells (MSCs). The concentration ranges selected for each drug and investigational agent were based upon clinically achievable concentrations if the clinical Cmax of the agent was known.\nCompounds. The drugs and investigational agents: ipatasertib (NSC767898), abemaciclib(NSC768073), selumetinib (NSC741078), trametinib (758246), adavosertib (NSC754352), everolimus (NSC733504), sapanisertib (NSC764658), vemurafenib (NSC761431), venetoclax (NSC766270), copanlisib (NSC809693), apelisib (NSC765974), palbociblib (NSC758247), vemurafenib (NSC761431), dabrafenib (NSC764134), ravoxertinib (NSC781343), BMS-387032 (NSC767048), sotorasib (NSC818433), talazoparib (NSC767125) and afursertib (NSC778305), were obtained from the National Cancer Institute (NCI) Developmental Therapeutics Program Chemical Repository. The FDA-approved anticancer drug set is available from the NCI Developmental Therapeutics Program. […] The stock solutions were prepared in dimethyl sulfoxide (DMSO, Sigma-Aldrich, St. Louis, MO, cat. D2650) at 800-fold the tested concentration and stored at -70 degrees C prior to their use. All drugs and investigational agents were tested over a range starting from a high concentration at or near the clinical Cmax and decreasing in half-log increments. If the clinical Cmax for an agent had not been determined, the highest concentration tested was 10 microM.\nNCI60 Cell Culture. NCI60 cell lines were obtained from the NCI Developmental Therapeutics Program Tumor Repository. For each lot of cells, the Repository performed Applied Biosystems AmpFLSTR Identifiler testing with PCR amplification to confirm consistency with the published Identifier STR profile for each cell line. Cells were kept in continuous culture for no more than 20 passages. The optimal seeding densities for each of the cell lines at each time point assessed were determined prior to performing the concentration response studies. Briefly, the NCI60 human tumor lines were grown as monolayers in RPMI 1640 medium supplemented with 10% FBS and 2 mmol/L L-glutamine.\nAn additional 9 lines were from the NCI60 cell line panel including MDA-MB-231 breast carcinoma, MDA-MB-468 breast carcinoma, MCF7 breast carcinoma, Hs578T breast carcinoma, MALME-3M melanoma, SK-MEL-2 melanoma, SK-OV-3 ovarian carcinoma, DU-145 prostate carcinoma, PC-3 prostate carcinoma, all cell lines along with major genetic alterations are listed on Table 2. Pooled donor human umbilical vein endothelial cells (HUVEC, Lonza, cat. CC-2519) and human mesenchymal stem cells (hMSC, Lonza, cat. PT-2501) were purchased from Lonza (Walkersville, MD).\nPDMR cell lines were grown in complete medium (DC medium): Dulbecco's modified Eagle's medium (DMEM)/F12 supplemented with 5% fetal bovine serum (FBS), 2 mM L-glutamine, 100 U/mL penicillin and 100 µg/ml streptomycin, 0.4 µg/ml hydrocortisone, 10 ng/ml epidermal growth factor (EGF) recombinant human protein, 24 µg/mL adenine, and 0.1 mg/mL primocin. During culture from frozen stock vials, PDMR cells were cultured in the same medium containing 10 µM Y-27632 (see Table 3). The PDCs were cultured in complete DMEM/F12 media without 10 microM Y-27632 dihydrochloride for at least two passages prior to the screen. The pooled donor HUVEC and hMSC were cultured in endothelial cell growth medium 2 (PromoCell, Heidelberg, Germany, cat. C-22011) and mesenchymal stem cell growth medium 2 (PromoCell, cat. C-28009), respectively. For all experiments, HUVEC and hMSC were used at passages </=5.\n[…]",
  "note": "“And” between values parts separate entries of the source, which are not always exact repeats. Identical values can stand only once.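 Note: spheroids exposed to compounds for 7 days before readout.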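 Throughout, for viability, T/C: CTG3D luminescence normalised so that 100% = DMSO vehicle control.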",
  "data": [
    {"smiles": "CCCS(=O)(=O)Nc1ccc(F)c(C(=O)c2c[nH]c3ncc(-c4ccc(Cl)cc4)cc23)c1F", "note": "+ CC(C)NCC(C(=O)N1CCN(c2ncnc3c2C(C)CC3O)CC1)c1ccc(Cl)cc1", "values": [
      {"measurement": "IC50", "setting": "curve of first compound, second compound 0.1 µM", "value": "> 10000", "unit": "nM"},
      {"measurement": "IC50", "setting": "curve of first compound, second compound 0.316 µM", "value": 126, "unit": "nM"},
      {"measurement": "IC50", "setting": "curve of first compound, second compound 1 µM", "value": "< 31.6", "unit": "nM"},
      {"measurement": "IC50", "setting": "curve of first compound, second compound 3.16 µM", "value": "< 31.6", "unit": "nM"},
      {"measurement": "IC50", "setting": "curve of first compound, second compound 10 µM", "value": "< 31.6", "unit": "nM"},
      {"measurement": "viability, T/C", "setting": "second compound 0.1 µM, first compound 0.0316 µM", "value": 74.3, "unit": "%"},
      {"measurement": "viability, T/C", "setting": "second compound 0.1 µM, first compound 0.1 µM", "value": 75.2, "unit": "%"},
      {"measurement": "viability, T/C", "setting": "second compound 0.1 µM, first compound 0.316 µM", "value": 63, "unit": "%"},
      {"measurement": "viability, T/C", "setting": "second compound 0.1 µM, first compound 1 µM", "value": 61.6, "unit": "%"},
      {"measurement": "viability, T/C", "setting": "second compound 0.1 µM, first compound 3.16 µM", "value": 49, "unit": "%"},
      {"measurement": "viability, T/C", "setting": "second compound 0.1 µM, first compound 10 µM", "value": 53.4, "unit": "%"},
      {"measurement": "viability, T/C", "setting": "second compound 0.316 µM, first compound 0.0316 µM", "value": 47.2, "unit": "%"},
      {"measurement": "viability, T/C", "setting": "second compound 0.316 µM, first compound 0.1 µM", "value": 52.1, "unit": "%"},
      {"measurement": "viability, T/C", "setting": "second compound 0.316 µM, first compound 0.316 µM", "value": 46.1, "unit": "%"},
      {"measurement": "viability, T/C", "setting": "second compound 0.316 µM, first compound 1 µM", "value": 55.4, "unit": "%"},
      {"measurement": "viability, T/C", "setting": "second compound 0.316 µM, first compound 3.16 µM", "value": 56.7, "unit": "%"},
      {"measurement": "viability, T/C", "setting": "second compound 0.316 µM, first compound 10 µM", "value": 38.8, "unit": "%"},
      {"measurement": "viability, T/C", "setting": "second compound 1 µM, first compound 0.0316 µM", "value": 46.5, "unit": "%"},
      {"measurement": "viability, T/C", "setting": "second compound 1 µM, first compound 0.1 µM", "value": 45.9, "unit": "%"},
      {"measurement": "viability, T/C", "setting": "second compound 1 µM, first compound 0.316 µM", "value": 37.6, "unit": "%"},
      {"measurement": "viability, T/C", "setting": "second compound 1 µM, first compound 1 µM", "value": 31.2, "unit": "%"},
      {"measurement": "viability, T/C", "setting": "second compound 1 µM, first compound 3.16 µM", "value": 42.5, "unit": "%"},
      {"measurement": "viability, T/C", "setting": "second compound 1 µM, first compound 10 µM", "value": 24.8, "unit": "%"},
      {"measurement": "viability, T/C", "setting": "second compound 3.16 µM, first compound 0.0316 µM", "value": 41.9, "unit": "%"},
      {"measurement": "viability, T/C", "setting": "second compound 3.16 µM, first compound 0.1 µM", "value": 42.6, "unit": "%"},
      {"measurement": "viability, T/C", "setting": "second compound 3.16 µM, first compound 0.316 µM", "value": 29, "unit": "%"},
      {"measurement": "viability, T/C", "setting": "second compound 3.16 µM, first compound 1 µM", "value": 26.5, "unit": "%"},
      {"measurement": "viability, T/C", "setting": "second compound 3.16 µM, first compound 3.16 µM", "value": 32, "unit": "%"},
      {"measurement": "viability, T/C", "setting": "second compound 3.16 µM, first compound 10 µM", "value": 16.3, "unit": "%"},
      {"measurement": "viability, T/C", "setting": "second compound 10 µM, first compound 0.0316 µM", "value": 18.7, "unit": "%"},
      {"measurement": "viability, T/C", "setting": "second compound 10 µM, first compound 0.1 µM", "value": 17.2, "unit": "%"},
      {"measurement": "viability, T/C", "setting": "second compound 10 µM, first compound 0.316 µM", "value": 19.6, "unit": "%"},
      {"measurement": "viability, T/C", "setting": "second compound 10 µM, first compound 1 µM", "value": 14.7, "unit": "%"},
      {"measurement": "viability, T/C", "setting": "second compound 10 µM, first compound 3.16 µM", "value": 15.7, "unit": "%"},
      {"measurement": "viability, T/C", "setting": "second compound 10 µM, first compound 10 µM", "value": 7.71, "unit": "%"}
    ]},
    {"smiles": "CC(C)(C)c1cnc(CSc2cnc(NC(=O)C3CCNCC3)s2)o1", "values": [
      {"measurement": "viability, T/C", "setting": "compound 0.00949 µM", "value": "133% and 138%"},
      {"measurement": "viability, T/C", "setting": "compound 0.03 µM", "value": "147% and 141%"},
      {"measurement": "viability, T/C", "setting": "compound 0.0949 µM", "value": "50.3% and 77.6%"},
      {"measurement": "viability, T/C", "setting": "compound 0.3 µM", "value": "1.67% and 2.96%"},
      {"measurement": "viability, T/C", "setting": "compound 0.949 µM", "value": "1.36% and 1.78%"},
      {"measurement": "viability, T/C", "setting": "compound 3 µM", "value": "0.89% and 2.1%"},
      {"measurement": "IC50", "setting": "curve of compound", "value": "95.6 nM and 145 nM"}
    ]}
  ]
}
